Experimental findings from ChEMBL document CHEMBL1201862, “PubChem BioAssay data set” (2004) are described below.

Among the test systems are BT-549; COLO 205; HCT-15; HT-29; IGROV-1; K562; MDA-MB-435; MDA-N; NCI-H522; OVCAR-3; OVCAR-4; RPMI-8226; SK-MEL-2; SK-MEL-5; SK-OV-3; SNB-19; SF-539; A498.
Experiment in all cases: NCI tumour cell line growth inhibition, 48 h

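Method: 48-hour compound exposure of cells in 96-well plates, five concentrations, linear interpolation of endpoints. Here, GI50 denotes the concentration required for 50% inhibition of growth.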 Active and inactive are the calls of the source. No stated cut-off is given here; in the data, active = GI50 up to about 1.1 µM and inactive = higher.

Take `COc1cc(C=O)ccc1Oc1nnnn1-c1ccccc1`: the GI50 in the assay on BT-549 was 66.2 µM (inactive); in the assay on COLO 205, > 100 µM (inactive); in the assay on HCT-15 it was 62.5 µM; in the assay on HT-29, 86.7 µM (inactive); with IGROV-1, 84.1 µM (inactive); with K562, 34.7 µM (inactive). The GI50 with MDA-MB-435 was 36.4 µM (inactive); with MDA-N it was 37.8 µM (inactive); in the assay with NCI-H522, > 100 µM (inactive); in the assay with OVCAR-3, 45.7 µM (inactive); with OVCAR-4, 50.9 µM (inactive); with RPMI-8226, 32.8 µM (inactive). The GI50 was > 100 µM (inactive) in the assay with SK-MEL-2, 20.1 µM (inactive) with SK-MEL-5, > 100 µM (inactive) in the assay on SK-OV-3 and 54.8 µM (inactive) in the assay with SNB-19.
As for `O=C(CN1CCCCC1)Nc1ccc2sc3ccccc3c(=O)c2n1`, the GI50 was 19.3 µM (inactive) in the assay on BT-549; 10.8 µM (inactive) in the assay with COLO 205; 12.2 µM in the assay on HCT-15; 30.3 µM (inactive) with HT-29; 16 µM (inactive) in the assay on IGROV-1; 5.36 µM (inactive) in the assay with K562. Further, the GI50 with MDA-MB-435 is 13.1 µM (inactive); with MDA-N it was 13.4 µM (inactive); with NCI-H522, 6.44 µM (inactive); in the assay with OVCAR-3, 31.5 µM (inactive); in the assay on OVCAR-4 it was 30.1 µM (inactive); in the assay on RPMI-8226, 13.1 µM (inactive). Besides, the GI50 was 16.4 µM (inactive) in the assay on SF-539; 18.6 µM (inactive) in the assay with SK-MEL-2; 15.8 µM (inactive) in the assay on SK-MEL-5; 21.3 µM (inactive) in the assay on SK-OV-3; 19.9 µM (inactive) in the assay on SNB-19.
For the compound `Nc1ccc(S(=O)(=O)Nc2nc3ccccc3nc2N2CCCCCC2)cc1`, the GI50 was 7.23 µM (inactive) with BT-549; 16.6 µM (inactive) in the assay with COLO 205; 23.9 µM in the assay on HCT-15; 33.3 µM (inactive) with HT-29; 34.4 µM (inactive) with IGROV-1; 17.6 µM (inactive) with K562. In addition, the GI50 was 18.1 µM (inactive) with MDA-MB-435; 32.5 µM (inactive) in the assay on MDA-N; 29 µM (inactive) in the assay on NCI-H522; 18.3 µM (inactive) with OVCAR-3; 17.1 µM (inactive) in the assay on OVCAR-4; 14.6 µM (inactive) with RPMI-8226. Also, the GI50 is 18.5 µM (inactive) in the assay on SF-539; 20 µM (inactive) in the assay with SK-MEL-2; 16.1 µM (inactive) in the assay with SK-MEL-5; 33.6 µM (inactive) in the assay on SK-OV-3; 32.7 µM (inactive) in the assay with SNB-19.
As to `CCOc1c(OC)cc(CNNc2nccs2)cc1OC`, the GI50 in the assay with A498 was > 100 µM (inactive); with BT-549, 41.5 µM (inactive); with COLO 205, 51.4 µM (inactive); in the assay on HCT-15, 28 µM; in the assay with HT-29, > 100 µM (inactive); in the assay with IGROV-1 it was > 100 µM (inactive). Besides, the GI50 is 24 µM (inactive) in the assay with K562; 54.2 µM (inactive) with MDA-MB-435; > 100 µM (inactive) in the assay with MDA-N; 52.6 µM (inactive) with NCI-H522; > 100 µM (inactive) in the assay with OVCAR-3; > 100 µM (inactive) in the assay on OVCAR-4. Also, the GI50 is 7.03 µM (inactive) in the assay with RPMI-8226, > 100 µM (inactive) in the assay on SF-539, 12.9 µM (inactive) in the assay with SK-MEL-5 and > 100 µM (inactive) with SNB-19.
On to `COc1ccc(/C=N/NC(=O)c2ccccc2Nc2ccccc2C(=O)N/N=C/c2ccc(OC)cc2)cc1`, for which the GI50 in the assay on A498 was > 100 µM (inactive); in the assay with BT-549 it was > 100 µM (inactive); in the assay on COLO 205, > 100 µM (inactive); in the assay on HCT-15 it was over 100 µM; with HT-29 it was > 100 µM (inactive); with IGROV-1 it was > 100 µM (inactive). Besides, the GI50 in the assay on K562, in the assay with MDA-MB-435, in the assay with MDA-N, in the assay on OVCAR-3, with OVCAR-4 and with RPMI-8226 was > 100 µM (inactive) in each case. Besides, the GI50 with SK-MEL-2, in the assay with SK-MEL-5, in the assay with SK-OV-3 and in the assay with SNB-19 was > 100 µM (inactive) in each case.
In the case of `CN(Cc1cnc2c(N)nc(N)nc2n1)c1ccc(Cl)cc1`, the GI50 in the assay on A498 was 31.7 µM (inactive); in the assay on BT-549 it was > 100 µM (inactive); in the assay with COLO 205, > 100 µM (inactive); in the assay with HCT-15, 71.6 µM; with IGROV-1, 13.7 µM (inactive); in the assay on K562 it was > 100 µM (inactive). In addition, the GI50 was > 100 µM (inactive) in the assay on MDA-MB-435; > 100 µM (inactive) in the assay with MDA-N; > 100 µM (inactive) in the assay on OVCAR-3; > 100 µM (inactive) in the assay on RPMI-8226; 24.3 µM (inactive) in the assay with SF-539; 29 µM (inactive) with SK-MEL-2. Besides, the values for the GI50 in the assay on SK-MEL-5, in the assay with SK-OV-3 and in the assay with SNB-19 were > 100 µM (inactive), 26.2 µM (inactive) and 33.3 µM (inactive), respectively.
Regarding `COc1ccc(C(=O)N2CCc3c([nH]c4ccccc34)C2C(=O)O)o1` (stereo not drawn), the GI50 with A498 was > 10 µM (inactive); in the assay on BT-549, > 10 µM (inactive); in the assay on COLO 205, > 10 µM (inactive); in the assay on HCT-15 it was over 10 µM; in the assay on HT-29, > 10 µM (inactive); in the assay with IGROV-1, > 10 µM (inactive). Besides, the GI50 in the assay with K562, in the assay with MDA-MB-435, in the assay on MDA-N, in the assay with OVCAR-3, with OVCAR-4 and in the assay on RPMI-8226 was > 10 µM (inactive) each time. Moreover, the GI50 in the assay with SF-539, with SK-MEL-5, with SK-OV-3 and with SNB-19 was > 10 µM (inactive) in each case.
`CC(C)(C)c1cc(S(=O)(=O)O)c2oc(-c3ccccc3)cc(=O)c2c1`: the GI50 in the assay on BT-549 is > 100 µM (inactive); in the assay with COLO 205, > 100 µM (inactive); in the assay with HCT-15, over 100 µM; with HT-29 it was > 100 µM (inactive); in the assay on IGROV-1, > 100 µM (inactive); in the assay with K562, > 100 µM (inactive). For the same compound, the GI50 with MDA-MB-435, in the assay with MDA-N, in the assay on NCI-H522, in the assay with OVCAR-3, in the assay with RPMI-8226 and in the assay with SF-539 was > 100 µM (inactive) in each case. The GI50 with SK-MEL-5 and in the assay with SNB-19 was > 100 µM (inactive) each time.
As for `CCOC(=O)[C@@]12CCC(C1=O)[C@](C)(O)C[C@@H]2c1ccccc1`, the GI50 with BT-549 is 58.5 µM (inactive); with COLO 205, 44.4 µM (inactive); in the assay on HCT-15, 25.8 µM; with HT-29, 29.2 µM (inactive); in the assay with IGROV-1, 35.4 µM (inactive); in the assay with K562, 30.4 µM (inactive). Also, the GI50 in the assay on MDA-MB-435 was 8.07 µM (inactive); with MDA-N, 3.86 µM (inactive); in the assay on NCI-H522, 19 µM (inactive); in the assay on OVCAR-3 it was 28.2 µM (inactive); in the assay on OVCAR-4, > 100 µM (inactive); in the assay with SF-539 it was 32.7 µM (inactive). Moreover, the GI50 in the assay with SK-MEL-2 is 38.1 µM (inactive); with SK-MEL-5, 35.2 µM (inactive); in the assay with SK-OV-3 it was 29.1 µM (inactive); in the assay with SNB-19, 43.7 µM (inactive).
Take `COc1cc(C(=O)C2C(=O)c3ccccc3C2C2(O)c3ccccc3CC2C(O)c2cc(OC)c(OC)c(OC)c2)cc(OC)c1OC` (stereo not drawn): the GI50 was > 100 µM (inactive) with A498; > 100 µM (inactive) with BT-549; > 100 µM (inactive) with COLO 205; over 100 µM in the assay on HCT-15; > 100 µM (inactive) with HT-29; > 100 µM (inactive) in the assay with IGROV-1. Besides, the GI50 is > 100 µM (inactive) in the assay with K562; > 100 µM (inactive) in the assay with MDA-MB-435; > 100 µM (inactive) in the assay on MDA-N; > 100 µM (inactive) with OVCAR-3; > 100 µM (inactive) in the assay on OVCAR-4; 15.2 µM (inactive) in the assay with RPMI-8226. Besides, the GI50 in the assay on SF-539 was 37.2 µM (inactive); in the assay with SK-MEL-2 it was > 100 µM (inactive); with SK-MEL-5, > 100 µM (inactive); in the assay on SK-OV-3, 32.1 µM (inactive); with SNB-19, > 100 µM (inactive).
For `Brc1ccc2c(-c3csc(-c4c[nH]c5cc(Br)ccc45)n3)c[nH]c2c1`, the GI50 was 37.1 µM (inactive) in the assay on A498; > 64.1 µM (inactive) in the assay with BT-549; 26.8 µM (inactive) with COLO 205; 12.4 µM with HCT-15; 15.8 µM (inactive) in the assay with HT-29; 17 µM (inactive) with IGROV-1. Further, the GI50 in the assay with K562 is 4.75 µM (inactive); in the assay on MDA-MB-435, 5.27 µM (inactive); in the assay on MDA-N, 5.43 µM (inactive); in the assay on OVCAR-3, 52.1 µM (inactive); with OVCAR-4, 31 µM (inactive); in the assay with RPMI-8226 it was 17.6 µM (inactive). Further, the GI50 is 19.6 µM (inactive) in the assay with SF-539; > 83 µM (inactive) in the assay with SK-MEL-2; 42.2 µM (inactive) in the assay on SK-MEL-5; 18.5 µM (inactive) in the assay on SK-OV-3; 21.3 µM (inactive) in the assay with SNB-19.
Regarding `COc1cc2cc(C(=O)N3CC(CCl)c4c3cc(NC(=O)OCc3ccc([N+](=O)[O-])cc3)c3ccccc43)[nH]c2c(OC)c1OC` (stereo not drawn), the GI50 in the assay with A498 is < 0.01 µM (active); in the assay on BT-549 it was 97.3 µM (inactive); in the assay with COLO 205, > 100 µM (inactive); in the assay on HCT-15, over 50.2 µM; in the assay on HT-29 it was > 54.2 µM (inactive); with IGROV-1 it was > 43.9 µM (inactive). The GI50 is > 100 µM (inactive) with MDA-MB-435; > 100 µM (inactive) in the assay on MDA-N; > 100 µM (inactive) in the assay with OVCAR-3; > 100 µM (inactive) in the assay on OVCAR-4; 13.3 µM (inactive) in the assay with RPMI-8226; > 48.6 µM (inactive) in the assay with SF-539. Moreover, the GI50 in the assay with SK-MEL-2 was > 69.2 µM (inactive); in the assay on SK-MEL-5, 46.7 µM (inactive); in the assay with SK-OV-3, < 0.01 µM (active); in the assay with SNB-19, > 100 µM (inactive).
